Several values for one entry are separate records, joined by “and”; a condition that tells them apart may be missing. Equal values may be shown once.
What was measured:
[1] = In vitro dissolution of cyclodextrin based meloxicam compositions under non-sink conditions (standard method); assay type: physicochemical
Method: The following standard method was used for the determination of the solution rate of the drug compositions: In vitro dissolution properties of the cyclodextrin based meloxicam compositions were studied under non-sink conditions in two different buffer systems, pH 1.3 and 7.6, respectively and in deionised water (pH=6.6) at 37° C.
(§1) The stirring rate was 160 r.p.m. […] Sampling time intervals were 5, 10, 15, 30, 45 and 60 minutes.

[2] = In vitro rate of dissolution of meloxicam composition at pH 1.2 (table 9); assay type: physicochemical; details: 37° C., 60 min
Method: The following standard method was used for the determination of the solution rate of the drug compositions: In vitro dissolution properties of the cyclodextrin based […], respectively and in deionised water (pH=6.6) at 37° C.
as §1

Dissolved meloxicam in solution ([1]; deionised water (pH = 6.6), 37° C., 5 min): 23 µg/mL | Dissolved meloxicam in solution ([1]; deionised water (pH = 6.6), 37° C., 10 min): 148 µg/mL | Dissolved meloxicam in solution ([1]; deionised water (pH = 6.6), 37° C., 15 min): 232 µg/mL | Dissolved meloxicam in solution ([1]; deionised water (pH = 6.6), 37° C., 30 min): 390 µg/mL | Dissolved meloxicam in solution ([1]; deionised water (pH = 6.6), 37° C., 45 min): 415 µg/mL | Dissolved meloxicam in solution ([1]; deionised water (pH = 6.6), 37° C., 60 min): 475 µg/mL | Dissolved meloxicam in solution ([1]; pH 1.3, 37° C., 5 min (tables 4, 11, 13)): 0.4 µg/mL and 0.30 µg/mL | Dissolved meloxicam in solution ([1]; pH 1.3, 37° C., 5 min, free meloxicam 130 mg, composition 1300 mg (table 7)): 0.45 µg/mL | Dissolved meloxicam in solution ([1]; pH 1.3, 37° C., 5 min, free meloxicam 130 mg, composition 1500 mg (tables 5, 6)): 0.45 µg/mL | Dissolved meloxicam in solution ([1]; pH 1.3, 37° C., 10 min (tables 4, 11, 13)): 0.6 µg/mL and 0.38 µg/mL | Dissolved meloxicam in solution ([1]; pH 1.3, 37° C., 10 min, free meloxicam 130 mg, composition 1300 mg (table 7)): 0.62 µg/mL | Dissolved meloxicam in solution ([1]; pH 1.3, 37° C., 10 min, free meloxicam 130 mg, composition 1500 mg (tables 5, 6)): 0.62 µg/mL | Dissolved meloxicam in solution ([1]; pH 1.3, 37° C., 15 min (tables 4, 11, 13)): 0.7 µg/mL and 0.44 µg/mL | Dissolved meloxicam in solution ([1]; pH 1.3, 37° C., 15 min, free meloxicam 130 mg, composition 1300 mg (table 7)): 0.67 µg/mL | Dissolved meloxicam in solution ([1]; pH 1.3, 37° C., 15 min, free meloxicam 130 mg, composition 1500 mg (tables 5, 6)): 0.67 µg/mL | Dissolved meloxicam in solution ([1]; pH 1.3, 37° C., 30 min (tables 4, 11, 13)): 0.7 µg/mL and 0.56 µg/mL | Dissolved meloxicam in solution ([1]; pH 1.3, 37° C., 30 min, free meloxicam 130 mg, composition 1300 mg (table 7)): 0.74 µg/mL | Dissolved meloxicam in solution ([1]; pH 1.3, 37° C., 30 min, free meloxicam 130 mg, composition 1500 mg (tables 5, 6)): 0.74 µg/mL | Dissolved meloxicam in solution ([1]; pH 1.3, 37° C., 45 min (tables 4, 11, 13)): 0.7 µg/mL and 0.59 µg/mL | Dissolved meloxicam in solution ([1]; pH 1.3, 37° C., 45 min, free meloxicam 130 mg, composition 1300 mg (table 7)): 0.73 µg/mL | Dissolved meloxicam in solution ([1]; pH 1.3, 37° C., 45 min, free meloxicam 130 mg, composition 1500 mg (tables 5, 6)): 0.73 µg/mL | Dissolved meloxicam in solution ([1]; pH 1.3, 37° C., 60 min (tables 4, 11, 13)): 0.6 µg/mL and 0.65 µg/mL | Dissolved meloxicam in solution ([1]; pH 1.3, 37° C., 60 min, free meloxicam 130 mg, composition 1300 mg (table 7)): 0.67 µg/mL | Dissolved meloxicam in solution ([1]; pH 1.3, 37° C., 60 min, free meloxicam 130 mg, composition 1500 mg (tables 5, 6)): 0.67 µg/mL | Dissolved meloxicam in solution ([1]; pH 7.6, 37° C., 5 min (tables 4, 11)): 38 µg/mL | Dissolved meloxicam in solution ([1]; pH 7.6, 37° C., 5 min, free meloxicam 130 mg, composition 1300 mg (table 7)): 38 µg/mL | Dissolved meloxicam in solution ([1]; pH 7.6, 37° C., 5 min, free meloxicam 130 mg, composition 1500 mg (tables 5, 6)): 38 µg/mL | Dissolved meloxicam in solution ([1]; pH 7.6, 37° C., 10 min (tables 4, 11)): 188 µg/mL and 218 µg/mL | Dissolved meloxicam in solution ([1]; pH 7.6, 37° C., 10 min, free meloxicam 130 mg, composition 1300 mg (table 7)): 218 µg/mL | Dissolved meloxicam in solution ([1]; pH 7.6, 37° C., 10 min, free meloxicam 130 mg, composition 1500 mg (tables 5, 6)): 218 µg/mL | Dissolved meloxicam in solution ([1]; pH 7.6, 37° C., 15 min (tables 4, 11)): 320 µg/mL | Dissolved meloxicam in solution ([1]; pH 7.6, 37° C., 15 min, free meloxicam 130 mg, composition 1300 mg (table 7)): 320 µg/mL | Dissolved meloxicam in solution ([1]; pH 7.6, 37° C., 15 min, free meloxicam 130 mg, composition 1500 mg (tables 5, 6)): 320 µg/mL | Dissolved meloxicam in solution ([1]; pH 7.6, 37° C., 30 min (tables 4, 11)): 390 µg/mL | Dissolved meloxicam in solution ([1]; pH 7.6, 37° C., 30 min, free meloxicam 130 mg, composition 1300 mg (table 7)): 390 µg/mL | Dissolved meloxicam in solution ([1]; pH 7.6, 37° C., 30 min, free meloxicam 130 mg, composition 1500 mg (tables 5, 6)): 390 µg/mL | Dissolved meloxicam in solution ([1]; pH 7.6, 37° C., 45 min (tables 4, 11)): 485 µg/mL | Dissolved meloxicam in solution ([1]; pH 7.6, 37° C., 45 min, free meloxicam 130 mg, composition 1300 mg (table 7)): 485 µg/mL | Dissolved meloxicam in solution ([1]; pH 7.6, 37° C., 45 min, free meloxicam 130 mg, composition 1500 mg (tables 5, 6)): 485 µg/mL | Dissolved meloxicam in solution ([1]; pH 7.6, 37° C., 60 min (tables 4, 11)): 550 µg/mL | Dissolved meloxicam in solution ([1]; pH 7.6, 37° C., 60 min, free meloxicam 130 mg, composition 1300 mg (table 7)): 550 µg/mL | Dissolved meloxicam in solution ([1]; pH 7.6, 37° C., 60 min, free meloxicam 130 mg, composition 1500 mg (tables 5, 6)): 550 µg/mL | meloxicam (dissolved) [2]: 0.8 µg/mL
SMILES: Cc1cnc(NC(=O)C2=C(O)c3ccccc3S(=O)(=O)N2C)s1 [free meloxicam, meloxicam]
